Test results published in patent US20150105252A1, “SUBSTITUTED PYRAZOLES AS HERBICIDES” (E I DU PONT DE NEMOURS AND COMPANY, priority 2013, published 2015).

Experiments:
foxtail, giant [1] = test: Test A preemergence; type: in vivo, Setaria faberii; conditions: 0 to 100 scale
Procedure, shortened: (§1)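 After sowing in a sand–loam mix, pots received compound preemergence by directed soil spray, or postemergence once plants reached the one- to two-leaf stage (2–10 cm). Formulation contained surfactant in a non-phytotoxic solvent. Injury was scored visually after ~10 greenhouse days, 0–100 scale.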

pigweed [2] = test: Test A preemergence; type: in vivo, Amaranthus retroflexus; conditions: 0 to 100 scale
Procedure, shortened: as §1

crabgrass, large = test: Test A postemergence; type: in vivo, Digitaria sanguinalis
Procedure, shortened: as §1

corn = test: Test A postemergence; type: in vivo, Zea mays
Procedure, shortened: as §1

blackgrass [3] = test: Test C preemergence; type: in vivo, Alopecurus myosuroides; conditions: for Plant response rating (scale of 0 to 100), Blackgrass: Preemergence, 250 g ai/ha; for Blackgrass plant response rating / Plant response rating, Blackgrass: preemergence; for Plant response rating, Blackgrass: 62 g ai/ha, scale 0 to 100, 0 = no effect, 100 = complete control
Text: (§2) Seeds of plant species selected from blackgrass (Alopecurus myosuroides), ryegrass, Italian (Italian ryegrass, Lolium multiflorum), wheat (winter wheat, Triticum aestivum), galium (catchweed bedstraw, Galium aparine), corn (Zea mays), crabgrass, large (large crabgrass, Digitaria sanguinalis), foxtail, giant (giant foxtail, Setaria faberii), johnsongrass (Sorghum halepense), lambsquarters (Chenopodium album), morningglory (Ipomoea coccinea), nutsedge, yellow (yellow nutsedge, Cyperus esculentus), pigweed (redroot pigweed, Amaranthus retroflexus), ragweed (common ragweed, Ambrosia elation), soybean (Glycine max), barnyardgrass (Echinochloa crus-galli), oilseed rape (Brassica napus), waterhemp (common waterhemp, Amaranthus rudis), oat, wild (wild oat, Avena fatua), kochia (Kochia scoparia), Surinam grass (Brachiaria decumbens), foxtail, green (green foxtail, Setaria viridis), goosegrass (Eleusine indica), bromegrass, downy (downy bromegrass, Bromus tectorum), nightshade (eastern black nightshade, Solanum ptycanthum), cocklebur (common cocklebur, Xanthium strumarium), cupgrass, woolly (woolly cupgrass, Eriochloa villosa), bermudagrass (Cynodon dactylon), sunflower, (common oilseed sunflower, Helianthus annuus), Russian thistle (Salsola kali), and velvetleaf (Abutilon theophrasti) were planted into a blend of loam soil and sand and treated preemergence with test chemicals formulated in a non-phytotoxic solvent mixture which included a surfactant.
(§3) At the same time, plants selected from these crop and weed species and also chickweed (common chickweed, Stellaria media), canarygrass (littleseed canarygrass, Phalaris minor), and deadnettle (henbit deadnettle, Lamium amplexicaule), were planted in pots containing Redi-Earth® planting medium (Scotts Company, 14111 Scottslawn Road, Marysville, Ohio 43041) comprising spaghnum peat moss, vermiculite, wetting agent and starter nutrients and treated with postemergence applications of test chemicals formulated in the same manner. Plants ranged in height from 2 to 18 cm (1- to 4-leaf stage) for postemergence treatments. Treated plants and controls were maintained in a greenhouse for 13 to 15 days, after which time all species were compared to controls and visually evaluated. Plant response ratings, summarized in Table C, are based on a scale of 0 to 100 where 0 is no effect and 100 is complete control. A dash (-) response means no test result.

galium = test: Test C preemergence; type: in vivo, Galium aparine; conditions: for Plant response rating (scale of 0 to 100), Galium: Preemergence, 250 g ai/ha; for Galium plant response rating / Plant response rating, Galium: preemergence; for Plant response rating, Galium: 62 g ai/ha, scale 0 to 100, 0 = no effect, 100 = complete control
Procedure, shortened: (§4)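 In this greenhouse assay, seeded soil (loam plus sand) or emerged seedlings in peat-vermiculite medium were treated with formulated compound. Roughly two weeks later (13–15 days), each species was scored visually relative to controls, from 0 for no effect to 100 for complete control.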

johnsongrass = test: Test C preemergence; type: in vivo, Sorghum halepense; conditions: for Plant response rating (scale of 0 to 100), Johnsongrass: Preemergence, 250 g ai/ha; for Johnsongrass plant response rating / Plant response rating, Johnsongrass: preemergence; for Plant response rating, Johnsongrass: 62 g ai/ha, scale 0 to 100, 0 = no effect, 100 = complete control
Procedure, shortened: as §4

pigweed [4] = test: Test C preemergence; type: in vivo, Amaranthus retroflexus; conditions: for Plant response rating (scale of 0 to 100), Pigweed: Preemergence, 250 g ai/ha; for Pigweed plant response rating / Plant response rating, Pigweed: preemergence; for Plant response rating, Pigweed: 62 g ai/ha, scale 0 to 100, 0 = no effect, 100 = complete control
Procedure, shortened: as §4

blackgrass [5] = test: Test C postemergence; type: in vivo, Alopecurus myosuroides; conditions: for Blackgrass plant response rating: scale 0 to 100
Procedure, shortened: as §4

wheat = test: Test C postemergence; type: in vivo, Triticum aestivum; conditions: postemergence; for Wheat plant response rating: 62 g ai/ha, scale 0 to 100
Text: as §2, §3

foxtail, giant [6] = test: Test C postemergence; type: in vivo, Setaria faberii; conditions: for Foxtail, Giant plant response rating: scale 0 to 100
Text: as §2, §3

pigweed [7] = test: Test C postemergence; type: in vivo, Amaranthus retroflexus; conditions: for Pigweed plant response rating: scale 0 to 100
Text: as §2, §3

ragweed = test: Test C postemergence; type: in vivo, Ambrosia elation; conditions: postemergence; for Ragweed plant response rating: 62 g ai/ha, scale 0 to 100
Procedure, shortened: as §4

soybean = test: Test C postemergence; type: in vivo, Glycine max; conditions: postemergence; for Soybean plant response rating: 62 g ai/ha, scale 0 to 100
Text: as §2, §3

[8] = Preemergence, 500 g ai/ha, 0 no effect, 100 complete control
[9] = preemergence, 125 g ai/ha, visual injury, approx. 10 days
[10] = Postemergence, 500 g ai/ha, visual rating after approx. 10 days, 0 to 100 scale (0 no effect, 100 complete control)
[11] = postemergence, 125 g ai/ha, about 10 days, visual rating on 0 to 100 scale (0 no effect, 100 complete control)
[12] = 31 g ai/ha, scale 0 to 100 (0 no effect, 100 complete control), 13 to 15 days
[13] = 125 g ai/ha, scale 0 to 100, 0 is no effect, 100 is complete control
[14] = postemergence, 250 g ai/ha, scale 0 to 100 (0 no effect, 100 complete control)
[15] = postemergence, 125 g ai/ha, scale 0 to 100, 0 no effect, 100 complete control
[16] = 250 g ai/ha, scale 0 to 100 (0 no effect, 100 complete control)
[17] = 125 g ai/ha, scale 0 to 100, 0 no effect, 100 complete control
[18] = Preemergence, 1000 g ai/ha, 0 no effect, 100 complete control
[19] = Postemergence, 1000 g ai/ha, visual rating after approx. 10 days, 0 to 100 scale (0 no effect, 100 complete control)

CCONC(=O)c1cc(CC)n(Cc2cccc(OC(F)(F)F)c2)n1 [Compound 72]
Foxtail, Giant plant response rating (foxtail, giant [1]; [8]): 100 | Foxtail, Giant plant response rating (foxtail, giant [1]; [9]): 70 | Pigweed plant response rating (pigweed [2]; [8]): 100 | Pigweed plant response rating (pigweed [2]; [9]): 100 | Crabgrass, Large plant response rating (crabgrass, large; [10]): 90 | Crabgrass, Large plant response rating (crabgrass, large; [11]): 80 | Corn plant response rating (corn; [10]): 80 | Corn plant response rating (corn; [11]): 70 | Plant response rating (scale of 0 to 100), Blackgrass (blackgrass [3]): 85 | Blackgrass plant response rating (blackgrass [3]; [12]): 45 | Plant response rating, Blackgrass (blackgrass [3]; 13 to 15 days): 80 | Blackgrass plant response rating (blackgrass [3]; [13]): 85 | Plant response rating (scale of 0 to 100), Galium (galium): 100 | Galium plant response rating (galium; [12]): 70 | Plant response rating, Galium (galium; 13 to 15 days): 98 | Galium plant response rating (galium; [13]): 100 | Plant response rating (scale of 0 to 100), Johnsongrass (johnsongrass): 75 | Johnsongrass plant response rating (johnsongrass; [12]): 40 | Plant response rating, Johnsongrass (johnsongrass; 13 to 15 days): 55 | Johnsongrass plant response rating (johnsongrass; [13]): 65 | Plant response rating (scale of 0 to 100), Pigweed (pigweed [4]): 100 | Pigweed plant response rating (pigweed [4]; [12]): 100 | Plant response rating, Pigweed (pigweed [4]; 13 to 15 days): 100 | Pigweed plant response rating (pigweed [4]; [13]): 100 | Blackgrass plant response rating (blackgrass [5]; Postemergence, 31 g ai/ha): 5 | Blackgrass plant response rating (blackgrass [5]; postemergence, 62 g ai/ha): 10 | Plant response rating, Blackgrass (blackgrass [5]; [14]): 40 | Plant response rating, Blackgrass (blackgrass [5]; [15]): 40 | Wheat plant response rating (wheat): 5 | Plant response rating, Wheat (wheat; [16]): 10 | Plant response rating, Wheat (wheat; [17]): 10 | Foxtail, Giant plant response rating (foxtail, giant [6]; Postemergence, 31 g ai/ha): 5 | Foxtail, Giant plant response rating (foxtail, giant [6]; postemergence, 62 g ai/ha): 5 | Plant response rating, Foxtail, Giant (foxtail, giant [6]; [14]): 15 | Plant response rating, Foxtail, Giant (foxtail, giant [6]; [15]): 5 | Pigweed plant response rating (pigweed [7]; Postemergence, 31 g ai/ha): 45 | Pigweed plant response rating (pigweed [7]; postemergence, 62 g ai/ha): 45 | Plant response rating, Pigweed (pigweed [7]; [14]): 65 | Plant response rating, Pigweed (pigweed [7]; [15]): 65 | Ragweed plant response rating (ragweed): 5 | Plant response rating, Ragweed (ragweed; [16]): 35 | Plant response rating, Ragweed (ragweed; [17]): 20 | Soybean plant response rating (soybean): 20 | Plant response rating, Soybean (soybean; [16]): 40 | Plant response rating, Soybean (soybean; [17]): 35

Cc1cc(C(=O)NCC(F)(F)F)nn1Cc1ccnc(C(F)(F)F)c1 [Compound 74]
Foxtail, Giant plant response rating (foxtail, giant [1]; [18]): 100 | Pigweed plant response rating (pigweed [2]; [18]): 100 | Crabgrass, Large plant response rating (crabgrass, large; [19]): 100 | Corn plant response rating (corn; [19]): 100 | Plant response rating (scale of 0 to 100), Blackgrass (blackgrass [3]): 90 | Blackgrass plant response rating (blackgrass [3]; [12]): 10 | Plant response rating, Blackgrass (blackgrass [3]; 13 to 15 days): 85 | Blackgrass plant response rating (blackgrass [3]; [13]): 90 | Plant response rating (scale of 0 to 100), Galium (galium): 100 | Galium plant response rating (galium; [12]): 85 | Plant response rating, Galium (galium; 13 to 15 days): 100 | Galium plant response rating (galium; [13]): 100 | Plant response rating (scale of 0 to 100), Johnsongrass (johnsongrass): 100 | Johnsongrass plant response rating (johnsongrass; [12]): 10 | Plant response rating, Johnsongrass (johnsongrass; 13 to 15 days): 25 | Johnsongrass plant response rating (johnsongrass; [13]): 98 | Plant response rating (scale of 0 to 100), Pigweed (pigweed [4]): 100 | Pigweed plant response rating (pigweed [4]; [12]): 100 | Plant response rating, Pigweed (pigweed [4]; 13 to 15 days): 100 | Pigweed plant response rating (pigweed [4]; [13]): 100 | Blackgrass plant response rating (blackgrass [5]; Postemergence, 31 g ai/ha): 0 | Blackgrass plant response rating (blackgrass [5]; postemergence, 62 g ai/ha): 0 | Plant response rating, Blackgrass (blackgrass [5]; [14]): 5 | Plant response rating, Blackgrass (blackgrass [5]; [15]): 5 | Wheat plant response rating (wheat): 0 | Plant response rating, Wheat (wheat; [16]): 5 | Plant response rating, Wheat (wheat; [17]): 0 | Foxtail, Giant plant response rating (foxtail, giant [6]; Postemergence, 31 g ai/ha): 5 | Foxtail, Giant plant response rating (foxtail, giant [6]; postemergence, 62 g ai/ha): 10 | Plant response rating, Foxtail, Giant (foxtail, giant [6]; [14]): 25 | Plant response rating, Foxtail, Giant (foxtail, giant [6]; [15]): 10 | Pigweed plant response rating (pigweed [7]; Postemergence, 31 g ai/ha): 60 | Pigweed plant response rating (pigweed [7]; postemergence, 62 g ai/ha): 65 | Plant response rating, Pigweed (pigweed [7]; [14]): 80 | Plant response rating, Pigweed (pigweed [7]; [15]): 80 | Ragweed plant response rating (ragweed): 45 | Plant response rating, Ragweed (ragweed; [16]): 70 | Soybean plant response rating (soybean): 80 | Plant response rating, Soybean (soybean; [16]): 85 | Plant response rating, Soybean (soybean; [17]): 85
